Measured values taken from US20240327381A1, “Compounds and Compositions for Selective Degradation of Engineered Proteins” (Celgene Corporation, priority 2023, published 2024).

Columns and labels:
Format in all cases: cell-based
[1] = molecular target: T1, IKZF1 ZNF2_ZNF3 Q1F degron-tagged CD19 CAR (Homo sapiens, UniProt Q13422, Q146F); assay: Degradation of Q1F degron-tagged CD19 CAR in Jurkat cells (flow cytometry of CAR levels); settings: for DC50: Jurkat cells expressing CD19 CAR tagged with IKZF1 ZNF2_ZNF3 Q1F, 18 hours at 37° C., CAR levels normalized to untreated cells, read-out: Q1F Jurkat IC50; for Dmax: Ymax is the % protein degraded, Jurkat cells expressing Q1F degron-tagged CD19 CAR, 18 hours, read-out: Q1F Jurkat-YMax
T1 construct: ZNF2_ZNF3 Q1F degron (GERPFFCNQCGASFTQKGNLLRHIKLHSGEKPFKCHLCNYACRRRDALTGHLRTHS); fused on or other part: anti-CD19 scFv, CD28 transmembrane domain, 4-1BB costimulatory domain, CD3 zeta signaling domain (the CAR that carries the degron), and Nluc
T1 sequence (Q13422 whole entry Q146F, the tested form may be a part): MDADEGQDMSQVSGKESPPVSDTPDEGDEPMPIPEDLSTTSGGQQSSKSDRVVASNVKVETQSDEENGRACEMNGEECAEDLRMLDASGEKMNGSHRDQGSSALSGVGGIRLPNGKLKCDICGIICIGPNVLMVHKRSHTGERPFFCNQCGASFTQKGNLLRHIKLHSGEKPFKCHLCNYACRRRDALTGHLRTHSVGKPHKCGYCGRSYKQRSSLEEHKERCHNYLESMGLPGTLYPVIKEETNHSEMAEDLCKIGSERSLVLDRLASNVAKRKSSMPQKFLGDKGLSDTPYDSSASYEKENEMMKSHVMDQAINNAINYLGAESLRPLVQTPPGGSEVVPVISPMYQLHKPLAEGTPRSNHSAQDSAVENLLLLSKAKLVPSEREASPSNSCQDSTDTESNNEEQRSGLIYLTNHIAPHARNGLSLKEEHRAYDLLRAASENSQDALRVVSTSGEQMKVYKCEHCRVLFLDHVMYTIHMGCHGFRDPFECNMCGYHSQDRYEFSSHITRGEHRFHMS
Procedure, shortened: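 Jurkat cells were lentivirally transduced with an anti-CD19 scFv/CD28 TM/4-1BB/CD3ζ CAR tagged with an IKZF1 ZNF2_ZNF3 Q1F degron–Nluc, then treated with compound titrations for 18 h at 37 °C. CAR surface levels were stained (20 min, 4 °C), read by flow cytometry and normalised to untreated cells. EC50 came from a four-parameter logistic fit; Ymin is the minimum % CAR remaining.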

Helios [2] = molecular target: T2, Helios (Homo sapiens, UniProt Q96SW2+Q9UKS7); assay: Helios degradation in Jurkat/Helios/HiBit cells (Nano-Glo luminescence); settings: for Helios Jurkat Hibit YMax: Ymax is the % protein degraded, 18 hr
T2 construct: endogenous in cells; host or cells: Jurkat cells, CRISPR/Cas9 knock-in of HiBit at the IKZF2 locus
T2 sequence (Q9UKS7 whole entry): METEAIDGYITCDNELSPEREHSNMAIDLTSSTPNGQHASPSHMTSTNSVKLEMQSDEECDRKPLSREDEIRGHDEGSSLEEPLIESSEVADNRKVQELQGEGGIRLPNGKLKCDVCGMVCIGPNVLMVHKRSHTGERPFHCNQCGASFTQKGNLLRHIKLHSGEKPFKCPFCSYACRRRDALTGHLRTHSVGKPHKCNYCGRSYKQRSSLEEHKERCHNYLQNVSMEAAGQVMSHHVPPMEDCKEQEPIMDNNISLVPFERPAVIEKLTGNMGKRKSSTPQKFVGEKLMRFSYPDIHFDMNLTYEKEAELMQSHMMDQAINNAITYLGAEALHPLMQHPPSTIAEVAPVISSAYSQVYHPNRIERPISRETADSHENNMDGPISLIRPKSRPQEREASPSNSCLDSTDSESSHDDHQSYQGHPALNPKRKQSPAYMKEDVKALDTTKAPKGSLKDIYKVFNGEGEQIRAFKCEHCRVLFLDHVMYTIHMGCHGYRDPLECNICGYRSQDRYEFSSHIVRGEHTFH
T2 sequence (Q96SW2 whole entry): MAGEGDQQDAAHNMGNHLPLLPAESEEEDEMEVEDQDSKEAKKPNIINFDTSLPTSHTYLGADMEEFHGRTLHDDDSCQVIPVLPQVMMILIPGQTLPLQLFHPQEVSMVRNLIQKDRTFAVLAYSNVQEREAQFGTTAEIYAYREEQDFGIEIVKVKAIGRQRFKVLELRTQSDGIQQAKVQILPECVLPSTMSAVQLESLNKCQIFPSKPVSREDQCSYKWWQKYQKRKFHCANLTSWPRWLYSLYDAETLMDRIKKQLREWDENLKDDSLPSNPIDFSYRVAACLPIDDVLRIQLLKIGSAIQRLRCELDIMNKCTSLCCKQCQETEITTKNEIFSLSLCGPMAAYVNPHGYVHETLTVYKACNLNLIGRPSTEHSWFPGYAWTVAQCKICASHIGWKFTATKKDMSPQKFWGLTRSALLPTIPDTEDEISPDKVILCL
T2 sequence (Q16531 whole entry partner): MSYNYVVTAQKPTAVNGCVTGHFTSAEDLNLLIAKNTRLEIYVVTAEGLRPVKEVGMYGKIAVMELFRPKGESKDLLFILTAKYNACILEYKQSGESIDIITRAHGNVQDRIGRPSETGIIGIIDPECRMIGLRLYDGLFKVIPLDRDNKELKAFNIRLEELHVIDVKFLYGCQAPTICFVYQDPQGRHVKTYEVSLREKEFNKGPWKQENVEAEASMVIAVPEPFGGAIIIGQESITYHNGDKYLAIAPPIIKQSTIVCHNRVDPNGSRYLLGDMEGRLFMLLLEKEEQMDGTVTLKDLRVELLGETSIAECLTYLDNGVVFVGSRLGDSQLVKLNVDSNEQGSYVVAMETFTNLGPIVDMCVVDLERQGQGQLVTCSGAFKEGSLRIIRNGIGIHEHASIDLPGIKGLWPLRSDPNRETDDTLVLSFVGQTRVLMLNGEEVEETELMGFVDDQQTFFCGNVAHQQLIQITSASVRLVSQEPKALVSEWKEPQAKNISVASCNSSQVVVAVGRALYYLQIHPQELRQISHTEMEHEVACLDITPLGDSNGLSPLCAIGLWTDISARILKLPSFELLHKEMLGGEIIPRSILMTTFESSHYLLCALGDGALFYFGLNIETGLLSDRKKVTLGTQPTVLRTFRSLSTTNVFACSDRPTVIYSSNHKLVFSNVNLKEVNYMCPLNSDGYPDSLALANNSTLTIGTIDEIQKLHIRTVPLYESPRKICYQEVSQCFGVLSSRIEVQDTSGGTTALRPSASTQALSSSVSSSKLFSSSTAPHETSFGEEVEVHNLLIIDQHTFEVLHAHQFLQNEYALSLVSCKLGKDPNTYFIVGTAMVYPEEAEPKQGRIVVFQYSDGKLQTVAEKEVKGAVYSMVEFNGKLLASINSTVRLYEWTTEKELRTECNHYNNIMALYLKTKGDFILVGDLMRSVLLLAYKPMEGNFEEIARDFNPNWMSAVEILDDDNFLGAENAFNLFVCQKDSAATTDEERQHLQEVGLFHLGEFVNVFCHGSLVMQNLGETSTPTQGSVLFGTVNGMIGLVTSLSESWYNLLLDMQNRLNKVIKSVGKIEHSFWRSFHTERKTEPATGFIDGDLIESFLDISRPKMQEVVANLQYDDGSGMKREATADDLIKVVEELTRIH
Procedure, shortened: (§1)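 Jurkat cells carrying CRISPR-knocked-in C-terminal HiBit-tagged endogenous IKZF2 were treated with compound in DMEM/10% FCS (10,000 cells/well) for 18 h at 37 °C. HiBit signal was read by Nano-Glo luminescence after 30 min at RT. EC50 for degradation came from a four-parameter logistic fit, with Ymax as % protein degraded.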

Helios [3] = molecular target: T3, Helios (Homo sapiens, UniProt Q9UKS7); assay: as above; settings: 18 hr, read-out: Helios Jurkat Hibit IC50
T3 construct: endogenous in cells; host or cells: Jurkat cells, CRISPR/Cas9 knock-in of HiBit at the IKZF2 locus
T3 sequence (Q9UKS7 whole entry): as the sequence (Q9UKS7 whole entry) above
T3 sequence (Q96SW2 whole entry, further chain): as the sequence (Q96SW2 whole entry) above
T3 sequence (Q16531 whole entry partner): as the sequence (Q16531 whole entry partner) above
Procedure, shortened: as §1

DC50 [1]	Dmax [1]	Helios Jurkat Hibit YMax (Helios [2])	DC50 (Helios [3])	SMILES	DC50 (Helios [2]; read-out: Helios Jurkat Hibit IC50, 18 hr)
0.00323 µM	84.6%		≥ 10 µM	O=C1CCC(N2Cc3c(cc(F)c(C4CCN(CC5CCCC5)CC4)c3F)C2=O)C(=O)N1 (centres unmarked) [Compound 112, 3-(5-(1-(cyclopentylmethyl)piperidin-4-yl)-4,6-difluoro-1-oxoisoindolin-2-yl)piperidine-2,6-dione]	
0.00273 µM	82.5%		≥ 10 µM	CC(C)CCN1CCC(c2c(F)cc3c(c2F)CN(C2CCC(=O)NC2=O)C3=O)CC1 (centres unmarked) [Compound 113, 3-(4,6-difluoro-5-(1-isopentylpiperidin-4-yl)-1-oxoisoindolin-2-yl)piperidine-2,6-dione]	
0.0108 µM	74.8%		≥ 10 µM	O=C1CCC(N2Cc3c(cc(F)c(C4CCN(CCC(F)(F)F)CC4)c3F)C2=O)C(=O)N1 (centres unmarked) [Compound 114, 3-(4,6-difluoro-1-oxo-5-(1-(3,3,3-trifluoropropyl)piperidin-4-yl)isoindolin-2-yl)piperidine-2,6-dione]	
0.00666 µM	79.7%		≥ 10 µM	CCCCN1CCC(c2c(F)cc3c(c2F)CN(C2CCC(=O)NC2=O)C3=O)CC1 (centres unmarked) [Compound 115, 3-(5-(1-butylpiperidin-4-yl)-4,6-difluoro-1-oxoisoindolin-2-yl)piperidine-2,6-dione]	
0.00319 µM	85.5%		≥ 10 µM	O=C1CCC(N2Cc3c(cc(F)c(C4CCN(Cc5cnc6ccccc6n5)CC4)c3F)C2=O)C(=O)N1 (centres unmarked) [Compound 116, 3-(4,6-difluoro-1-oxo-5-(1-(quinoxalin-2-ylmethyl)piperidin-4-yl)isoindolin-2-yl)piperidine-2,6-dione]	
0.00626 µM	86.1%		≥ 10 µM	O=C1CCC(N2Cc3c(cc(F)c(C4CCN(Cc5ccncc5)CC4)c3F)C2=O)C(=O)N1 (centres unmarked) [Compound 117, 3-(4,6-difluoro-1-oxo-5-(1-(pyridin-4-ylmethyl)piperidin-4-yl)isoindolin-2-yl)piperidine-2,6-dione]	
0.00286 µM	83%		≥ 10 µM	O=C1CCC(N2Cc3c(cc(F)c(C4CCN(CCCOc5ccccc5)CC4)c3F)C2=O)C(=O)N1 (centres unmarked) [Compound 118, 3-(4,6-difluoro-1-oxo-5-(1-(3-phenoxypropyl)piperidin-4-yl)isoindolin-2-yl)piperidine-2,6-dione]	
0.165 µM	65.8%		≥ 10 µM	O=C1CCC(N2Cc3c(cc(F)c(C4CCN(Cc5nnc(-c6ccccc6)o5)CC4)c3F)C2=O)C(=O)N1 (centres unmarked) [Compound 120, 3-(4,6-difluoro-1-oxo-5-(1-((5-phenyl-1,3,4-oxadiazol-2-yl)methyl)piperidin-4-yl)isoindolin-2-yl)piperidine-2,6-dione]	
0.0204 µM	76.7%		≥ 10 µM	CS(=O)(=O)CCCN1CCC(c2c(F)cc3c(c2F)CN(C2CCC(=O)NC2=O)C3=O)CC1 (centres unmarked) [Compound 121, 3-(4,6-difluoro-5-(1-(3-(methylsulfonyl)propyl)piperidin-4-yl)-1-oxoisoindolin-2-yl)piperidine-2,6-dione]	
0.0651 µM	74.2%		≥ 10 µM	CNC(=O)CN1CCC(c2c(F)cc3c(c2F)CN(C2CCC(=O)NC2=O)C3=O)CC1 (centres unmarked) [Compound 122, 2-(4-(2-(2,6-dioxopiperidin-3-yl)-4,6-difluoro-1-oxoisoindolin-5-yl)piperidin-1-yl)-N-methylacetamide]	
0.0213 µM	74.5%		≥ 10 µM	O=C1CCC(N2Cc3c(cc(F)c(C4CCN(CCO)CC4)c3F)C2=O)C(=O)N1 (centres unmarked) [Compound 123, 3-(4,6-difluoro-5-(1-(2-hydroxyethyl)piperidin-4-yl)-1-oxoisoindolin-2-yl)piperidine-2,6-dione]	
0.011 µM	76.7%		≥ 10 µM	COCCN1CCC(c2c(F)cc3c(c2F)CN(C2CCC(=O)NC2=O)C3=O)CC1 (centres unmarked) [Compound 124, 3-(4,6-difluoro-5-(1-(2-methoxyethyl)piperidin-4-yl)-1-oxoisoindolin-2-yl)piperidine-2,6-dione]	
0.0221 µM	80.1%		≥ 10 µM	CN1CCC(N2CCC(c3c(F)cc4c(c3F)CN(C3CCC(=O)NC3=O)C4=O)CC2)CC1 (centres unmarked) [Compound 125, 3-(4,6-difluoro-5-(1′-methyl-[1,4′-bipiperidin]-4-yl)-1-oxoisoindolin-2-yl)piperidine-2,6-dione]	

The remaining lines, values behind:

SMILES	DC50 [1]	Dmax [1]	Helios Jurkat Hibit YMax (Helios [2])	DC50 (Helios [3])	DC50 (Helios [2]; read-out: Helios Jurkat Hibit IC50, 18 hr)
O=C1CCC(N2Cc3c(cc(F)c(C4(O)CCN(Cc5ccc(C(F)(F)F)cc5)CC4)c3F)C2=O)C(=O)N1 (centres unmarked) [Compound 11, 3-(4,6-difluoro-5-(4-hydroxy-1-(4-(trifluoromethyl)benzyl)piperidin-4-yl)-1-oxoisoindolin-2-yl)piperidine-2,6-dione]	0.00491 µM	83.5%			≥ 10 µM
Cc1cc(-c2cc(F)c3c(c2)CN(C2CCC(=O)NC2=O)C3=O)nc(N)c1C (centres unmarked) [Compound 16, 3-(5-(6-amino-4,5-dimethylpyridin-2-yl)-7-fluoro-1-oxoisoindolin-2-yl)piperidine-2,6-dione]	0.00267 µM	92.9%	64.8253%	0.012 µM	
Cc1ccc(CN2CCC(c3c(F)cc4c(c3F)CN(C3CCC(=O)NC3=O)C4=O)CC2)cc1F (centres unmarked) [Compound 46, 3-(4,6-difluoro-5-(1-(3-fluoro-4-methylbenzyl)piperidin-4-yl)-1-oxoisoindolin-2-yl)piperidine-2,6-dione]	0.000112 µM	91.8%	50.8729%	6520 µM	
Cn1cnc2ccc(CN3CCC(c4c(F)cc5c(c4F)CN(C4CCC(=O)NC4=O)C5=O)CC3)cc21 (centres unmarked) [Compound 106, 3-(4,6-difluoro-5-(1-((1-methyl-1H-benzo[d]imidazol-6-yl)methyl)piperidin-4-yl)-1-oxoisoindolin-2-yl)piperidine-2,6-dione]	0.000698 µM	91.8%		≥ 10 µM	
O=C1CCC(N2Cc3c(cc(F)c(C4CCN(Cc5cccnc5)CC4)c3F)C2=O)C(=O)N1 (centres unmarked) [Compound 107, 3-(4,6-difluoro-1-oxo-5-(1-(pyridin-3-ylmethyl)piperidin-4-yl)isoindolin-2-yl)piperidine-2,6-dione]	0.0021 µM	89.7%		≥ 10 µM	
CN(C)CCCOc1ccc(CN2CCC(c3c(F)cc4c(c3F)CN(C3CCC(=O)NC3=O)C4=O)CC2)cc1 (centres unmarked) [Compound 108, 3-(5-(1-(4-(3-(dimethylamino)propoxy)benzyl)piperidin-4-yl)-4,6-difluoro-1-oxoisoindolin-2-yl)piperidine-2,6-dione]	0.00366 µM	83.1%		≥ 10 µM	
CS(=O)(=O)Nc1cccc(CN2CCC(c3c(F)cc4c(c3F)CN(C3CCC(=O)NC3=O)C4=O)CC2)c1 (centres unmarked) [Compound 109, N-(3-((4-(2-(2,6-dioxopiperidin-3-yl)-4,6-difluoro-1-oxoisoindolin-5-yl)piperidin-1-yl)methyl)phenyl) methanesulfonamide]	0.00228 µM	91.5%		≥ 10 µM	
CN(C)c1ccc(CN2CCC(c3c(F)cc4c(c3F)CN(C3CCC(=O)NC3=O)C4=O)CC2)cc1 (centres unmarked) [Compound 110, 3-(5-(1-(4-(dimethylamino)benzyl)piperidin-4-yl)-4,6-difluoro-1-oxoisoindolin-2-yl)piperidine-2,6-dione]	0.00112 µM	90.5%		≥ 10 µM	
Cc1ccc(CCN2CCC(c3c(F)cc4c(c3F)CN(C3CCC(=O)NC3=O)C4=O)CC2)cc1 (centres unmarked) [Compound 111, 3-(4,6-difluoro-5-(1-(4-methylphenethyl)piperidin-4-yl)-1-oxoisoindolin-2-yl)piperidine-2,6-dione]	0.00745 µM	82.7%		≥ 10 µM	
O=C1CC[C@H](N2Cc3c(cc(F)c(C4CC5CCC(C4)N5Cc4ccc5ncsc5c4)c3F)C2=O)C(=O)N1 (stereo partly drawn) [Compound 126, (3S)-3-(5-(8-(benzo[d]thiazol-6-ylmethyl)-8-azabicyclo[3.2.1]octan-3-yl)-4,6-difluoro-1-oxoisoindolin-2-yl)piperidine-2,6-dione]	0.000427 µM	92.2%		≥ 10 µM	
O=C1CC[C@@H](N2Cc3c(cc(F)c(C4CC5CCC(C4)N5Cc4ccc5ncsc5c4)c3F)C2=O)C(=O)N1 (stereo partly drawn) [Compound 127, (3R)-3-(5-(8-(benzo[d]thiazol-6-ylmethyl)-8-azabicyclo[3.2.1]octan-3-yl)-4,6-difluoro-1-oxoisoindolin-2-yl)piperidine-2,6-dione]	0.00594 µM	91.2%		≥ 10 µM	
O=C1CCC(N2Cc3c(cc(F)c(C4C[C@H]5CC[C@@H](C4)N5Cc4ccc(C(F)F)cc4)c3F)C2=O)C(=O)N1 (stereo partly drawn) [Compound 128, 3-(5-((1R,5S)-8-(4-(difluoromethyl)benzyl)-8-azabicyclo[3.2.1]octan-3-yl)-4,6-difluoro-1-oxoisoindolin-2-yl)piperidine-2,6-dione]	0.0174 µM	87.2%		≥ 10 µM	
